The values that follow are results of earlier work, collected in patent US7615672B2, “Process for the preparation of n-heneicosane” (Defence Research & Development Organisation, priority 2005, dated 2009).

In the data set the test system is Aedes aegypti. The conditions noted are these: oviposition attractant pheromone.

Take `CCCCCCCCCCCCCCCCCCCCC` [n-heneicosane]: the “concentration at which n-heneicosane attracts Aedes aegypti mosquitoes” value is “less than 100 ppm”.
